Source: article PMC6348924, “Detection of Active Caspase-3 in Mouse Models of Stroke and Alzheimer's Disease with a Novel Dual Positron Emission Tomography/Fluorescent Tracer [^68Ga]Ga-TC3-OGDOTA” (Contrast Media & Molecular Imaging, 2019)

Tested on: primary cortical neuronal cultures treated with CPT
Test: Ga-TC3-OGDOTA accumulation in CPT toxicity assay
Format: cell-based, mouse
Settings: 10 μM CPT, 24 h
Method: For the in vitro cell culture studies, primary hippocampal and cortical neuronal cultures were prepared from E17 mouse embryos as described previously and cultured in regular neuronal medium (RNM) containing 1x B27, 0.5 mM glutamine, 0.25% glucose in Neurobasal medium (Invitrogen).
Three different conditions known to induce neuronal apoptosis were used to study Ga-TC3-OGDOTA uptake in cell culture: camptothecin (CPT) toxicity, OGD, and AβO toxicity. […] For the CPT toxicity assay, cortical neurons were treated with 0 (control) or 10 μM CPT (Sigma-Aldrich) for 24 h at normal conditions (5% CO2, 37°C). After that the cultures were washed with RNM and incubated with various concentrations of Ga-TC3-OGDOTA for 7 h, followed by either direct live imaging or fixation with 4% paraformaldehyde (PFA) in PBS for staining. […]
For coimaging of Hoechst 33342 (Hoechst), 4′,6′-Diamidino-2-Phenylindole (DAPI), Oregon Green and CC3, fixed cultures were immunostained with anti-CC3 antibody (1 : 500, Cell Signaling, cat#9661) followed by antirabbit secondary antibody and DAPI or Hoechst. […] Cells positive for tracer, CC3, and total number of cells were counted using the ImageJ (NIH, Bethesda, MD) Cell Counter plugin and their ratio was compared between the treatments.

## CC[C@@]1(O)C(=O)OCc2c1cc1n(c2=O)Cc2cc3ccccc3nc2-1 [CPT, camptothecin]
  effect on number of apoptotic neurons in the culture: elevated
